From patent publication US10111893B2, “Calmangafodipir, a new chemical entity, and other mixed metal complexes, methods of preparation, compositions, and methods of treatment” (priority 2012, dated 2018)
Where two headings read alike, the source gives them in different places.

What was measured:
[1] = tested on: CT26 (mouse colon carcinoma) cells; experiment: MTT viability assay, cytotoxic activity; conditions: 48 h, 1-1,000 μM
Procedure: The viability of cells was measured using the MTT assay. […] The viability of the cells was then assessed by adding 5 mg/ml methylthiazoletetrazolium (MTT) to a final concentration of 0.5 mg/ml and incubating cells for a further 4 h at 37° C. The blue formazan that is formed by mitochondrial dehydrogenases of viable cells was then dissolved over night at 37° C. by adding 10% SDS and 10 mM HCl to a final concentration of 5% SDS and 5 mM HCl. Finally, the absorbance of the solution was read at 570 nm with a reference at 670 nm in a microplate reader Spectramax 340 (Molecular Devices, Sunnyvale, Calif., USA) connected to an Apple Macintosh computer running the program Softmax Pro V1.2.0 (Molecular Devices, Sunnyvale, Calif., USA).

[2] = tested on: white blood cells (WBC), lymphocytes (LYM), neutrophils (NEU); experiment: Myelosuppressive effects of carboplatin in balb/c mice, cytoprotection; assay type: in vivo
Description: A control group received vehicle (saline) and saline instead of carboplatin.

pig heart = conditions: pigs; cited from earlier work
[3] = cited from earlier work
white blood cells (WBC) = experiment: Myelosuppressive effects of oxaliplatin in balb/c mice, cytoprotection
Procedure: One day before (baseline) as well as 3 and 6 days after oxaliplatin treatment 50 μl EDTA blood samples were taken from the orbital venous plexus with a glass capillary. The blood samples were analyzed using the automated system CELL-DYN® Emerald (Abbott Diagnostics) for the content of white blood cells (WBC), lymphocytes (LYM), neutrophils (NEU) and platelets (PLC). […] A control group received instead of oxaliplatin vehicle (5% glucose) and saline. […] The statistical differences between treatment groups, where appropriate, were tested by an unpaired Student's t-test. A p-value lower than 0.05 was considered as a statistically significant difference.

[4] = Exposure of solids at 25° C./60% RH and 40° C./75% RH (water absorption); assay type: physicochemical; conditions: 7 days at 25° C./60% RH and 40° C./75% RH
Procedure: Furthermore, the preparation of a single active pharmaceutical ingredient reduces the cost of manufacture of a treatment dosage. In addition, the need for dosing of a single material reduces the chance for errors in the formulation of the product.
In a 4:1 ratio approximately 200 mg of calfodipir (CaDPDP) and 50 mg of mangafodipir (MnDPDP) were weighed into a 40 mL vial and dissolved in 40 mL of DI water at room temperature to generate a yellow solution. The yellow aqueous solution was spray dried using a Buchi Mini-Spray Dryer B-290 while attached to the Buchi dehumidifier B-296 as an air conditioner allowing the intake of air from the laboratory. Spray drying optimization experiments were performed at elevated inlet temperatures (220° C.) with varying feed rates (20, 30, 40, 50 and 60%). Recovery of product ranged from 180-230 mg.

LLC1 NSCLC cells = experiment: MTT viability assay, cytotoxic activity; assay type: cell-based, murine; conditions: 48 h
Procedure: (§1) The viability of U1810 or LLC1 cells in the presence of increasing concentrations of calmangafodipir or mangafodipir is presented as concentration response curves (mean±S.D.). The individual curves were fitted to the sigmoidal variable slope response logistic equation (Graphpad Prism, version 5.02). From this analysis the concentrations causing 50% inhibition (IC50) of the test substances were calculated.

[5] = Variable humidity XRPD analysis of crystalline forms; assay type: physicochemical; conditions: 10 mg scale, change of ambient humidity
Description: X-Ray Powder Diffraction (XRPD) is most widely used in the identification and characterization of crystalline solids, each of which produces a distinctive diffraction pattern. Both the positions (corresponding to lattice spacings) and the relative intensity of the lines are indicative of a particular phase and material, providing a “fingerprint” for comparison.

human U1810 NSCLC cells = experiment: MTT viability assay, cytotoxic activity; assay type: cell-based; conditions: for IC50: 48 h, MTT, read-out: IC50 (concentration causing 50% inhibition of viability)
Procedure: as §1

[6] = Manganese urine excretion 0-24 h after intravenous injection; conditions: rats; for Mn recovered in 0-24 h urine: iv 0.25 ml, 2.59 μmol Mn (mangafodipir) or 2.52 μmol Mn (calmangafodipir) injected; for Mn in 0-24 h urine as percentage of the injected dose: iv, basal excretion subtracted
Procedure: To obtain basal content of manganese (Mn) and zinc (Zn) in urine, two additional (control) rats received 0.25 ml saline and were placed in metabolic cages for urine collection over the same period of time. The urine samples were then stored at −80° C. until Mn analysis. Before analysis, the samples were thawed and extensively shaken to obtain homogenous samples. A five ml aliquot was taken from each sample and 5 ml concentrated nitric acid was added. The samples were then resolved in a microwave oven and thereafter diluted with distilled water to a final volume of 50 ml. The Mn content of each sample was analyzed by ICP-MS (Inductively Coupled Plasma Mass Spectrometry). Identical samples of calmangafodipir and mangafodipir as those injected in the rats (i.e., 0.25 ml) were withdrawn and injected into test tubes. These samples were treated in an identical manner to that of the urine samples and analyzed for their Mn content. Results are presented as total 0-24 h urine Mn content (expressed as μmol/kg±S.E.M.) and as percentage (±S.E.M.) of the injected dose. […] A p-value lower than 0.05 was considered as a statistically significant difference.

CT26 tumors [7] = experiment: Antitumor activity of oxaliplatin with or without calmangafodipir in CT26-bearing mice; assay type: in vivo, balb/c mice
Procedure: When the cells reached ˜50% confluency they were harvested by trypsinization. Briefly, cells were washed with phosphate based saline (PBS) (pH 7.3) and exposed to 0.05% Trypsin/0.53 mM EDTA at 37° C. for ˜5 min. The trypsinization was stopped by adding RPMI1640 culture medium. Cells were counted and centrifuged at 200×g for 5 min. Thereafter, they were washed in PBS, centrifuged again and resuspended in PBS at a concentration of 2×10^6/350 μl for injection into mice. Balb/c female mice between 6 and 8 weeks of age were used, as described by Laurent et al., 2005. Briefly, each mouse was injected subcutaneously in the back of the neck with 2×10^6 of CT26 cells at day 0. After 7 days (day 7) when the tumors were detectable, the tumor size was determined with a caliper and mice were grouped (5 in each group) so that the sizes of the tumors were not statistically different by group. Oxaliplatin±calmangafodipir (lot #11AK0105B) was injected and one group of mice received vehicle (0.9% saline+5% glucose) treatment alone. In a first series of experiments, mice were injected i.v. with saline or 50 mg/kg calmangafodipir 30 minutes prior to i.p. administration of 20 mg/kg oxaliplatin (diluted in 5% glucose) or 5% glucose. These mice received in addition saline or 50mg/kg calmangafodipir 24 hours later (day 8). In another series of experiments, mice were injected i.v. with saline or 5 mg/kg calmangafodipir 30 minutes […] (diluted in 5% glucose) or 5% glucose, and saline or 5 mg/kg calmangafodipir 24 hours later (day 8). The mice were killed on day 10 and the tumors were excised and wet weights were determined.

[8] = Mn content of brain, pancreas and liver after repeated intravenous injections; conditions: rats, 39 iv doses, 72 μmol/kg manganese each, 3 times a week for 13 weeks
Procedure: After the 13-week administration period, the rats were sacrificed and the brains and pancreas were dissected out and approximately 0.5 g samples were stored frozen until Mn analysis. The Mn content of each sample was analyzed by ICP-MS. Results are expressed as μg/g wet weight±S.E.M. Statistical difference between the mangafodipir group and the calmangafodipir group, with respect to Mn content, was tested by a paired Student's t-test. A p-value lower than 0.05 was considered as a statistically significant difference.

CT26 tumors [9] = experiment: Antitumor activity of oxaliplatin with or without calmangafodipir in CT26-bearing immune competent and nude balb/c mice; assay type: in vivo; conditions: 5 mg/kg calmangafodipir with 10 mg/kg oxaliplatin
Procedure: When the cells reached ˜50% confluency they were harvested by trypsinization. Briefly, cells were washed with PBS (pH 7.3) and exposed to 0.05% Trypsin/0.53 mM EDTA at 37° C. for ˜5 min. The trypsinization was stopped by adding RPMI 1640 culture medium. Cells were counted and centrifuged at 200×g for 5 min. Thereafter, they were washed in PBS, centrifuged again and resuspended in PBS at a concentration of 2×10^6/350 μl for injection into mice. Immune competent balb/c female mice (balb/c) and immune incompetent nude female balb/c mice (blab/c nu/nu) between 6 and 8 weeks of age were used, as described by Laurent et al., 2005. Briefly, each mouse was injected subcutaneously in the back of the neck with 2×10^6 of CT26 cells at day 0. After 7 days (day 7) when the tumors were detectable, the tumor size was determined with a caliper and mice were grouped (5 in each group) so that the sizes of the tumors were not statistically different by group. Groups of mice (5 in each group, as illustrated in FIG. 14) were injected i.v. with saline or 5 mg/kg calmangafodipir (lot #11AK0105B) 30 minutes prior to i.p. administration of 10 mg/kg oxaliplatin (diluted in 5% glucose) or 5% glucose. Mice received in addition saline or 5 mg/kg calmangafodipir 24 hours later (day 8). The mice were sacrificed on day 10 and the tumors were excised and wet weights were determined. The results are presented in a graph for the various treatments (mean±S.E.M.).

[10] = rats; cited from earlier work
[11] = one patient, cited from earlier work
[12] = humans, diagnostic MR imaging dose iv; cited from earlier work
[13] = rats, single 5 μmol/kg b.w., cited from earlier work

## [Ca+2].[Cl-].[Cl-] [CaCl2]
[1]
  cytotoxic activity: Neither ZnDPDP, ZnPLED nor CaCl2 displayed any cytotoxic activity at all

## N.N.O=C([O-])C1(C(=O)[O-])CCC1.[Pt+2] [Carboplatin, carboplatin]
[2]; carboplatin 125 mg/kg alone, 3 days after
  decrease in WBC, as well as in NEU and LYM: approximately 50%

## Cc1ncc(CO)c(CN(CCN(CC(=O)O)Cc2c(CO)cnc(C)c2O)CC(=O)O)c1O [MnPLED, N,N′-dipyridoxyl ethylenediamine-N,N′-diacetic acid]
[1]
  cytotoxic activity relative to mangafodipir: ~10 times
Pig heart
  protection against ischemia-reperfusion-induced myocardial infarction: significantly reduced myocardial infarct size

## Cc1ncc(CO)c(CN(CCN(CC(=O)[O-])Cc2c(CO)cnc(C)c2O)CC(=O)[O-])c1O.[Zn+2] [ZnPLED]
[3]; higher stability
  stability of complex relative to manganese counterpart: 1000 times
[1]
  cytotoxic activity: Neither ZnDPDP, ZnPLED nor CaCl2 displayed any cytotoxic activity at all

## Cc1ncc(COP(=O)([O-])O)c(CN(CCN(CC(=O)O)Cc2c(COP(=O)([O-])O)cnc(C)c2O)CC(=O)O)c1O.Cc1ncc(COP(=O)([O-])O)c(CN(CCN(CC(=O)O)Cc2c(COP(=O)([O-])O)cnc(C)c2O)CC(=O)O)c1O.Cc1ncc(COP(=O)([O-])O)c(CN(CCN(CC(=O)O)Cc2c(COP(=O)([O-])O)cnc(C)c2O)CC(=O)O)c1O.Cc1ncc(COP(=O)([O-])O)c(CN(CCN(CC(=O)O)Cc2c(COP(=O)([O-])O)cnc(C)c2O)CC(=O)O)c1O.Cc1ncc(COP(=O)([O-])O)c(CN(CCN(CC(=O)O)Cc2c(COP(=O)([O-])O)cnc(C)c2O)CC(=O)O)c1O.[Ca+2].[Ca+2].[Ca+2].[Ca+2].[Mn+2] [calmangafodipir]
White blood cells (WBC); 12.5 mg/kg oxaliplatin plus 5 mg/kg calmangafodipir iv 30 min before and 24 h after
  fall in WBC: about 25%
[4]
  appearance of solid after exposure: remained a free flowing solid
LLC1 NSCLC cells
  potency to kill cells compared with mangafodipir: significantly more potent than mangafodipir
[5]
  time within which form conversions occur: ≤ 3 h
Human U1810 NSCLC cells
  IC50 ratio between mangafodipir and calmangafodipir (potency relative to mangafodipir): about 28 times
  IC50: 22.7 µM
[2]; calmangafodipir 3 mg/kg with carboplatin 125 mg/kg
  effect on carboplatin-induced decreases in WBC, NEU and LYM: abolished these decreases
[2]; calmangafodipir 1, 3, 10 or 30 mg/kg with carboplatin 125 mg/kg
  shape of dose-response of myeloprotection: bell shaped appearance
[6]
  Mn recovered in 0-24 h urine: 1.27 ± 0.07 µmol
  Mn in 0-24 h urine as percentage of the injected dose: 50.5±2.6%
CT26 tumors [7]; 5 mg/kg calmangafodipir iv with 10 mg/kg oxaliplatin
  influence on antitumor effect of oxaliplatin: statistically significant better antitumor effect
CT26 tumors [7]; 50 mg/kg calmangafodipir iv with 20 mg/kg oxaliplatin
  influence on antitumor effect of oxaliplatin: did not have any negative influence on the antitumor effect of oxaliplatin
[8]
  Mn brain content: 0.74±0.01 μg/g w.w.
  Mn content in the pancreas: 3.35 ± 0.19 µmol/kg
[1]
  cytotoxic activity relative to mangafodipir: about 20 times
CT26 tumors [9]; immune competent and immune incompetent mice
  influence on antitumor effect of oxaliplatin: did not have any negative influence on the antitumor effect of oxaliplatin
CT26 tumors [9]; immune competent mice
  mean tumor weight compared to controls: statistically significantly reduced
CT26 tumors [9]; immune deficient mice
  mean tumor weight compared to controls: no such reduction was seen

## Cc1ncc(COP(=O)(O)O)c(CN(CCN(CC(=O)O)Cc2c(COP(=O)(O)O)cnc(C)c2O)CC(=O)O)c1O [fodipir, N,N′-bis-(pyridoxal-5-phosphate)-ethylenediamine-N,N′-diacetic acid]
[3]; higher affinity of zinc
  affinity of zinc relative to manganese for the chelator: about 1000 times
[3]; lower affinity of calcium
  affinity of calcium relative to manganese for the chelator: about 10^6 times
  affinity of calcium relative to zinc for the chelator: about 10^9 times
[1]
  cytotoxic activity relative to mangafodipir: about 20 times

## Cc1ncc(COP(=O)(O)O)c(CN(CCN(CC(=O)O)Cc2c(COP(=O)(O)O)cnc(C)c2O)CC(=O)O)c1O.[Mn] [mangafodipir, manganese N,N′-bis-(pyridoxal-5-phosphate)-ethylenediamine-N,N′-diacetic acid]
White blood cells (WBC); 12.5 mg/kg oxaliplatin plus 1 mg/kg mangafodipir iv
  fall in WBC: around 50%
White blood cells (WBC); 12.5 mg/kg oxaliplatin plus 10 mg/kg mangafodipir iv
  fall in WBC: around 50%
Human U1810 NSCLC cells
  IC50: 633 µM
[6]
  Mn recovered in 0-24 h urine: 0.60 ± 0.04 µmol
  Mn in 0-24 h urine as percentage of the injected dose: 23.1±1.4%
[8]
  Mn content in the pancreas: 5.54 ± 0.45 µmol/kg
[10]
  fetal skeletal abnormalities: caused fetal skeletal abnormalities in rats
[11]; 14 of 15 cycles with mangafodipir pretreatment, accumulated 1275 mg/m^2 oxaliplatin
  neurotoxic symptoms: No neurotoxic symptoms were detected
[11]; during chemotherapy cycles
  neutropenia: Neutropenia did not occur
Pig heart
  protection against ischemia-reperfusion-induced myocardial infarction: does not protect the pig heart against ischemia-reperfusion-induced myocardial infarction
[12]
  administered manganese released: about 80%
[13]; after 2 hours
  Mn content of the pancreas relative to basal value: approximately 10 times
[13]; after 24 hours
  Mn content of the pancreas relative to basal value: about 5 times

## O=C1[O][Pt]2([NH][C@@H]3CCCC[C@H]3[NH]2)[O]C1=O [oxaliplatin]
White blood cells (WBC); single dose 12.5 mg/kg oxaliplatin alone, 6 days after
  fall in WBC: more than 80%
CT26 tumors [7]; single treatment 20 mg/kg oxaliplatin i.p., day 10
  reduction in tumor weight: more than 50%
